Measured values published in US12473304B2, “Heterocyclic PAD4 inhibitors” (BRISTOL-MYERS SQUIBB COMPANY, priority 2020, dated 2025).

Molecular target: human PAD4 (hPAD4) (Homo sapiens (Human), UniProt Q9UM07)
Assay: RFMS Human PAD4 Functional Assay 1
Format: biochemical
Conditions: RFMS assay 1; 5 nM hPAD4, 250 μM BAEE substrate, 50 μM calcium, 37° C.
Method in brief: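 Citrullination product read by RapidFire triple-quad MRM against a modified-citrulline internal standard, after TCA stop and 30 min phenyl glyoxal step at 37 °C. Reaction: 250 μM BAEE, 5 nM human PAD4, 90 min at 37 °C, pH 7.5 HEPES buffer with 50 μM calcium and 5 μM TPEN, following 30 min compound–enzyme preincubation (max 50 μM).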

Chain of human PAD4 (hPAD4) (Q9UM07 whole entry): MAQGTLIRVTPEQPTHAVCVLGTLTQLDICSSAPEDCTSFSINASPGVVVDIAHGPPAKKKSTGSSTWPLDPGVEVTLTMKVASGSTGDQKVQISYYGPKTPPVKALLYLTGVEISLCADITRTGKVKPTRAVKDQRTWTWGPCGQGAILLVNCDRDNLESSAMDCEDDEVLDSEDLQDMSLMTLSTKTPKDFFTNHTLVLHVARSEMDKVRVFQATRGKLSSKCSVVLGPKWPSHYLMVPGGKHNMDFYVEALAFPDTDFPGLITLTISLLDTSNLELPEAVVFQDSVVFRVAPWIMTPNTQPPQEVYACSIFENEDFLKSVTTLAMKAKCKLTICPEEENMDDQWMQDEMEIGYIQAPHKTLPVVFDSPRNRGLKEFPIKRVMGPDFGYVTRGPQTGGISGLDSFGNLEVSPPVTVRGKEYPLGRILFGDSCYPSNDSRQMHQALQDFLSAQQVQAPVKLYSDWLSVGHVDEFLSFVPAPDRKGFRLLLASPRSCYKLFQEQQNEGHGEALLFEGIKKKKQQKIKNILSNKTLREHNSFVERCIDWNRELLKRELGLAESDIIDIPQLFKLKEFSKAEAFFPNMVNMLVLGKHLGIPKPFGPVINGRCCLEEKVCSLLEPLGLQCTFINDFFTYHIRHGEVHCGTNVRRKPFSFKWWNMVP

SMILES	IC50 [nM]
Cc1c(-c2cc3ccc(-c4ccc5cn[nH]c5c4)nc3n2CC2CC2)nn2cc(C(=O)N3CCC[C@@H](N)C3)ccc12 [Example 310, (3R)-1-{2-[1-(Cyclopropylmethyl)-6-(1H-indazol-6-yl)-1H-pyrrolo[2,3-b]pyridin-2-yl]-3-methylpyrazolo[1,5-a]pyridine-6-carbonyl}piperidin-3-amine]	400
Cc1c(-c2cc3ccc(-c4cccc5[nH]ncc45)nc3n2CC2CC2)nn2cc(C(=O)N3CCC[C@@H](N)C3)ccc12 [Example 311, (3R)-1-{2-[1-(Cyclopropylmethyl)-6-(1H-indazol-4-yl)-1H-pyrrolo[2,3-b]pyridin-2-yl]-3-methylpyrazolo[1,5-a]pyridine-6-carbonyl}piperidin-3-amine]	210
Cc1c(-c2ccc3cc(-c4nn5cc(C(=O)N6CCC[C@@H](N)C6)ccc5c4C)n(CC4CC4)c3n2)cc(F)c2[nH]c(=O)ccc12 [Example 312, 6-(2-{6-[(3R)-3-Aminopiperidine-1-carbonyl]-3-methylpyrazolo[1,5-a]pyridin-2-yl}-1-(cyclopropylmethyl)-1H-pyrrolo[2,3-b]pyridin-6-yl)-8-fluoro-5-methyl-1,2-dihydroquinolin-2-one]	60
Cc1c(-c2cc3ccc(-c4cccc(O)c4Cl)nc3n2CC2CC2)nn2cc(C(=O)N3CCC[C@@H](N)C3)ccc12 [Example 313, 3-(2-{6-[(3R)-3-Aminopiperidine-1-carbonyl]-3-methylpyrazolo[1,5-a]pyridin-2-yl}-1-(cyclopropylmethyl)-1H-pyrrolo[2,3-b]pyridin-6-yl)-2-chlorophenol]	100
Cc1c(-c2cc3ccc(-c4cccc(O)c4F)nc3n2CC2CC2)nn2cc(C(=O)N3CCC[C@@H](N)C3)ccc12 [Example 314, 3-(2-{6-[(3R)-3-Aminopiperidine-1-carbonyl]-3-methylpyrazolo[1,5-a]pyridin-2-yl}-1-(cyclopropylmethyl)-1H-pyrrolo[2,3-b]pyridin-6-yl)-2-fluorophenol]	40
Cc1c(-c2cc3ccc(-c4ccc5c(c4)C(=O)NC5)nc3n2CC2CC2)nn2cc(C(=O)N3CCC[C@@H](N)C3)ccc12 [Example 315]	340
Cc1cc(-c2ccc3cc(-c4nn5cc(C(=O)N6CCC[C@@H](N)C6)ccc5c4C)n(CC4CC4)c3n2)ccc1C(N)=O [Example 316, 4-(2-{6-[(3R)-3-Aminopiperidine-1-carbonyl]-3-methylpyrazolo[1,5-a]pyridin-2-yl}-1-(cyclopropylmethyl)-1H-pyrrolo[2,3-b]pyridin-6-yl)-2-methylbenzamide]	250
Cc1c(-c2cc3ccc(-c4ccc5c(c4)CNC5=O)nc3n2CC2CC2)nn2cc(C(=O)N3CCC[C@@H](N)C3)ccc12 [Example 317, 5-(2-{6-[(3R)-3-Aminopiperidine-1-carbonyl]-3-methylpyrazolo[1,5-a]pyridin-2-yl}-1-(cyclopropylmethyl)-1H-pyrrolo[2,3-b]pyridin-6-yl)-2,3-dihydro-1H-isoindol-1-one]	510

Other lines, results leading:

IC50 [nM]	SMILES
310	Cc1c(-c2cc3ccc(N4CCOCC4)nc3n2CC2CC2)nn2cc(C(=O)N3CC4CCC3[C@@H]4N)ccc12 (stereo partly drawn) [Example 318, (7R)-2-{2-[1-(Cyclopropylmethyl)-6-(morpholin-4-yl)-1H-pyrrolo[2,3-b]pyridin-2-yl]-3-methylpyrazolo[1,5-a]pyridine-6-carbonyl}-2-azabicyclo[2.2.1]heptan-7-amine]
50	Cc1c(-c2cc3ccc(N4CCOCC4=O)nc3n2CC2CC2)nn2cc(C(=O)N3CC4CCC3[C@@H]4N)ccc12 (stereo partly drawn) [Example 319, 4-(2-{6-[(7R)-7-Amino-2-azabicyclo[2.2.1]heptane-2-carbonyl]-3-methylpyrazolo[1,5-a]pyridin-2-yl}-1-(cyclopropylmethyl)-1H-pyrrolo[2,3-b]pyridin-6-yl)morpholin-3-one]
150	Cc1c(-c2cc3ccc(N4CCC(S(C)(=O)=O)CC4)nc3n2CC2CC2)nn2cc(C(=O)N3CC4CCC3[C@@H]4N)ccc12 (stereo partly drawn) [Example 320, (7R)-2-{2-[1-(Cyclopropylmethyl)-6-(4-methanesulfonylpiperidin-1-yl)-1H-pyrrolo[2,3-b]pyridin-2-yl]-3-methylpyrazolo[1,5-a]pyridine-6-carbonyl}-2-azabicyclo[2.2.1]heptan-7-amine]
15000	Cc1c(-c2cc3ccc(-c4ccc5cn[nH]c5c4)nc3n2CC2CC2)nn2cc(C(=O)N3C[C@H](N)C[C@@H](F)C3)ccc12 [Example 321, (3R,5R)-1-{2-[1-(Cyclopropylmethyl)-6-(1H-indazol-6-yl)-1H-pyrrolo[2,3-b]pyridin-2-yl]-3-methylpyrazolo[1,5-a]pyridine-6-carbonyl}-5-fluoropiperidin-3-amine]
500	Cc1c(-c2cc3ccc(-c4cccc5[nH]ncc45)nc3n2CC2CC2)nn2cc(C(=O)N3C[C@H](N)C[C@@H](F)C3)ccc12 [Example 322, (3R,5R)-1-{2-[1-(Cyclopropylmethyl)-6-(1H-indazol-4-yl)-1H-pyrrolo[2,3-b]pyridin-2-yl]-3-methylpyrazolo[1,5-a]pyridine-6-carbonyl}-5-fluoropiperidin-3-amine]
140	Cc1c(-c2cc3ccc(-c4ccc5[nH]ncc5c4)nc3n2CC2CC2)nn2cc(C(=O)N3C[C@H](N)C[C@@H](F)C3)ccc12 [Example 323, (3R,5R)-1-{2-[1-(Cyclopropylmethyl)-6-(1H-indazol-5-yl)-1H-pyrrolo[2,3-b]pyridin-2-yl]-3-methylpyrazolo[1,5-a]pyridine-6-carbonyl}-5-fluoropiperidin-3-amine]
110	Cc1c(-c2ccc3cc(-c4nn5cc(C(=O)N6C[C@H](N)C[C@@H](F)C6)ccc5c4C)n(CC4CC4)c3n2)cc(F)c2[nH]c(=O)ccc12 [Example 324, 6-(2-{6-[(3R,5R)-3-Amino-5-fluoropiperidine-1-carbonyl]-3-methylpyrazolo[1,5-a]pyridin-2-yl}-1-(cyclopropylmethyl)-1H-pyrrolo[2,3-b]pyridin-6-yl)-8-fluoro-5-methyl-1,2-dihydroquinolin-2-one]
1540	COC(=O)N(C)C1CCN(c2ccc3cc(-c4nn5cc(C(=O)N6C[C@H](N)C[C@@H](F)C6)ccc5c4C)n(CC4CC4)c3n2)CC1 [Example 325, Methyl N-[1-(2-{6-[(3R,5R)-3-amino-5-fluoropiperidine-1-carbonyl]-3-methylpyrazolo[1,5-a]pyridin-2-yl}-1-(cyclopropylmethyl)-1H-pyrrolo[2,3-b]pyridin-6-yl)piperidin-4-yl]-N-methylcarbamate]
200	Cc1c(-c2cc3ccc(-c4ccc(F)c5[nH]ncc45)cc3n2CC2CC2)nn2cc(C(=O)N3CC4CCC3[C@@H]4N)ccc12 (stereo partly drawn) [Example 326, (7R)-2-{2-[1-(Cyclopropylmethyl)-6-(7-fluoro-1H-indazol-4-yl)-1H-indol-2-yl]-3-methylpyrazolo[1,5-a]pyridine-6-carbonyl}-2-azabicyclo[2.2.1]heptan-7-amine]
70	Cc1c(-c2cc3ccc(-c4cccc5[nH]nc(F)c45)cc3n2CC2CC2)nn2cc(C(=O)N3CC4CCC3[C@@H]4N)ccc12 (stereo partly drawn) [Example 327, (7R)-2-{2-[1-(Cyclopropylmethyl)-6-(3-fluoro-1H-indazol-4-yl)-1H-indol-2-yl]-3-methylpyrazolo[1,5-a]pyridine-6-carbonyl}-2-azabicyclo[2.2.1]heptan-7-amine]
